Here are results for 4 compounds from patent US8735569B2, “Nucleoside phosphoramidates” (Gilead Pharmasset LLC, priority 2009, dated 2014).

The test system of data set [1] is HCV replication. Kind of data set: HCV replicon assay (firefly luciferase reporter). The format is cell-based, hepatitis C virus. As to conditions: replicon containing cells, 4 days incubation, Bright-Glo firefly luciferase reporter. Here is the method: Replicon containing cells were seeded at either 3,000 cells/well (50 μL) in 96-well white/opaque plates, or 1,500 cells/well (25 μL) in 384-well white/opaque plates. 50 μL of 2× compound were added in the 96 well plate or 25 μL of 2× compound were added in the 384 well plate. The plates were incubated at 37° C. in a humidified 5% CO2 atmosphere for 4 days. After incubation, Bright-Glo reagent (50 μL for 96-well plate, or 25 μL for 384-well plate) was added to measure the firefly luciferase reporter for HCV replication. Percent inhibition was calculated against the no drug control.

Data set [2] has as its system hepatitis C virus, genotypes 1-4. Kind of data set: Genotype coverage.
Data set [3] can be described thus: Thermodynamic aqueous solubility. The format is physicochemical. The conditions noted are these: for pH of Unfiltered mixture: aqueous suspension after 24 hours at 25° C.; for solubility at 24 h / Solubility: water; for solubility at 24 h: 25 °C, thermodynamic from solid, summary of batch characterization (Table 16), read-out: Aq Solubility; for Solubility: equilibrated at 25° C. for 24 hours, HPLC quantitation. Here is the method: Aqueous solubility was determined by suspending a sufficient amount of compound in water to give a maximum final concentration of >10 mg·ml^−1 of the parent free-form of the compound. The suspension was equilibrated at 25° C. for 24 hours then the pH was measured. The suspension was then filtered through a glass fiber C filter into a 96 well plate. The filtrate was then diluted by a factor of 101. Quantitation was by HPLC with reference to a standard solution of approximately 0.1 mg·ml^−1 in DMSO. Different volumes of the standard, diluted and undiluted sample solutions were injected. The solubility was calculated using the peak areas determined by integration of the peak found at the same retention time as the principal peak in the standard injection.
Analysis was performed under the above-noted conditions on an Agilent HP1100 series system equipped with a diode array detector and using ChemStation software vB.02.01-SR1.

The nature of data set [4]: Stability at elevated temperatures and relative humidity. The format is physicochemical. How it is done: A sample of RP-4 was stored in a humidity chamber at 40° C. and 75% relative humidity for one week, and the sample was reanalyzed by XRPD. […] This should be contrasted to a sample of 4, which deliquesced within about 16 hours upon storage at 40° C. and 75% relative humidity. Indeed, an illustration of the deliquescent nature of 4 is illustrated by the following. A sample of 4 was passed through a 250 μm sieve then samples were stored at 40° C./75% RH and 25° C./53% relative humidity and visual observations were taken at regular intervals.
Upon storage at 40° C. and 75% relative humidity a sample of SP-4 deliquesced inside 16 hours. For instance, a sample of SP-4 was ground with a pestle and mortar, and then successively passed through 500 and 250 μm sieves to yield the sample as a fine powder. Samples of this material were stored at 40° C. and 75% relative humidity and 25° C. and 53% RH and visual observations were taken at regular intervals.

Data set [5] can be described thus: Gravimetric vapour sorption (GVS). The format is physicochemical. The conditions noted are these: 25° C. Here is the method:
Sorption isotherms were obtained using a SMS DVS Intrinsic moisture sorption analyzer, controlled by SMS Analysis Suite software. The sample temperature was maintained at 25° C. by the instrument controls. The humidity was controlled by mixing streams of dry and wet nitrogen, with a total flow rate of 200 ml·min^−1. The relative humidity was measured by a calibrated Rotronic probe (dynamic range of 1.0-100% RH), located near the sample. The weight change, (mass relaxation) of the sample as a function of % RH was constantly monitored by the microbalance (accuracy ±0.005 mg).
Typically 5-20 mg of sample was placed in a tared mesh stainless steel basket under ambient conditions. The sample was loaded and unloaded at 40% RH and 25° C. (typical room conditions). A moisture sorption isotherm was performed as outlined below (2 scans giving 1 complete cycle). The standard isotherm was performed at 25° C. at 10% RH intervals over a 0.5-90% RH range.
The sample was recovered after completion of the isotherm and re-analyzed by XRPD.
A sample of SP-4 was ground with a pestle and mortar, and then successively passed through 500 and 250 μm sieves to yield the sample as a fine powder that was then analyzed using a modified single cycle method. The sample was taken from 40% RH (approximately ambient) to 60% RH, instead of 90% for the standard method, and then cycled to 0% and back to 40% RH.

The nature of data set [6]: Storage stability of crystalline form in a sealed container. The format is physicochemical. An excerpt:
First, by allowing fine crystals of Form 1 to be exposed to atmospheric humidity for several days, a monohydrate of Form 1 is produced with an appearance of a solidified gum. After grinding the monohydrate solid to a fine powder, the XRPD pattern remains consistent with Form 1. Upon standing in an open vessel for 6-10 weeks, the ground material slowly changes to Form 6 as an anhydrous solid. Form 1 is stable for at least 2 years in a sealed container.

Setting [7] is: summary of batch characterization (Table 16).

≈ marks a conversion by molar mass, not a printed value.

`CC(C)OC(=O)[C@H](C)N[P@@](=O)(OC[C@H]1O[C@@H](n2ccc(=O)[nH]c2=O)[C@](C)(F)[C@@H]1O)Oc1ccccc1` (single isomer, unassigned) [RP-4]: in data set [1], the “HCV Replicon Activity” value was 2.87 µM. Moreover, in data set [2], the “activity against hepatitis C virus, genotypes 1-4 (broad genotype coverage)” value is given as “active”. Further, in data set [3], the “pH of Unfiltered mixture” value turned out to be 7.12, the solubility at 24 h stood at 1580 µg/mL (≈ 2.98 mM) and the Solubility is 1.58 mg. m1^−1. In addition, in data set [4] (40° C. and 75% relative humidity for one week), the “change in solid form by XRPD after storage” value was “no change in solid form was observed”. Moreover, in data set [4] (setting [7]), the “40° C./75% RH (stability summary)” value is recorded as “No form change”. Moreover, the “hygroscopicity by GVS analysis” value in data set [5] was “non-hygroscopic”. In addition, the “reversible uptake of water” value in data set [5] (from 0 to 90% relative humidity) is listed as “approximately 0.2 wt %”.

As for `CC(C)OC(=O)[C@H](C)NP(=O)(OC[C@H]1O[C@@H](n2ccc(=O)[nH]c2=O)[C@](C)(F)[C@@H]1O)Oc1ccccc1` (stereo partly drawn) [Compound 4, (S)-2-{[(1R,4R,5R)-5-(2,4-Dioxo-3,4-dihydro-2H-pyrimidin-1-yl)-4-(R)-fluoro-3-hydroxy-4-methyl-tetrahydro-furan-2-ylmethoxy]-phenoxy-phosphorylamino}-propionic acid isopropyl ester], the “HCV Replicon Activity” value in data set [1] is 0.58 µM. In addition, in data set [3], the “pH of Unfiltered mixture” value is 7.03, the solubility at 24 h was 6110 µg/mL (≈ 11.5 mM) and the Solubility came to 6.11 mg. m1^−1. For the same compound, in data set [4] (40° C. and 75% relative humidity), the “time to deliquescence upon storage” value was at most 16 h. In addition, the “25° C./53% RH (stability summary)” value in data set [4] (setting [7]) is given as “Deliquescence”.

Turning to `CC(C)OC(=O)[C@H](C)N[P@](=O)(OC[C@H]1O[C@@H](n2ccc(=O)[nH]c2=O)[C@](C)(F)[C@@H]1O)Oc1ccccc1` [SP-4, (S)-Isopropyl 2-((S)-(((2R,3R,4R,5R)-5-(2,4-dioxo-3,4-dihydropyrimidin-1(2H)-yl)-4-fluoro-3-hydroxy-4-methyltetrahydrofuran-2-yl)methoxy)(phenoxy)phosphorylamino)propanoate], the “HCV Replicon Activity” value in data set [1] came to 0.13 µM. Besides, the “activity against hepatitis C virus, genotypes 1-4 (broad genotype coverage)” value in data set [2] is “active”. In data set [3], the solubility at 24 h is 5650 µg/mL (≈ 10.7 mM) and the Solubility was determined as 5.65 mg. m1^−1. Moreover, the “visual observation (stability to elevated relative humidity)” value in data set [4] (40° C./75% RH, t = 4.5 h) is “Deliquescence”. Also, in data set [4] (setting [7]), the “25° C./53% RH (stability summary)” value is given as “No form change”.

`CC(C)OC(=O)[C@H](C)N[P@](=O)(OC[C@H]1O[C@@H](n2ccc(=O)[nH]c2=O)[C@](C)(F)[C@@H]1O)Oc1ccccc1` [Form 1]: the “stable in a sealed container” value in data set [6] is “at least 2 years”.
